Data set [1] addresses T1, human 5-HT1A receptor (Homo sapiens (Human), UniProt P08908). Briefly: Test 1: binding activity for human 5-HT1A receptor ([3H]8-OH-DPAT, CHO cell membrane fraction). In short, it runs like this: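 Membranes incubated with [3H]8-OH-DPAT and compound for 60 min at room temperature, then filtered on polyethylenimine-coated glass-fibre plates and counted by liquid scintillation. IC50 from Hill analysis; Ki = IC50/(1+S/Kd), Kd from saturation binding on the same membranes.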

For data set [2], the target named is T2, hERG channel (Homo sapiens (Human), UniProt Q12809). Nature of the data set: Test 6-1: inhibitory activity for hERG channel (auto patch clamp, Qpatch). Type of data set: cell-based. The conditions noted are these: whole cell auto patch clamp, hERG-CHO cells; read-out: hERG inhibition IC50. The essentials: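 Whole-cell patch clamp on an automated system using CHO cells stably expressing human hERG (IKr); 15 s pulse interval. Four increasing compound concentrations applied cumulatively; mean peak tail current from last 3 stimulations per concentration used. IC50 from inhibition versus pre-compound current, fitted by Hill equation.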

For a further data set, the target named is human D2 receptor (Homo sapiens (Human), UniProt P14416). Nature of the data set: Test 1: binding activity for human D2 receptor ([3H]Spiperone, CHO cell membrane fraction). The settings on record: human D2 receptor, [3H]Spiperone. In short, it runs like this: (§1)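 Compound displacement of [3H]ketanserin at 5-HT2A or [3H]spiperone at D2 was measured in CHO membrane fractions after 60 min at room temperature, with filtration and scintillation counting. IC50 was converted to Ki by Cheng–Prusoff using ligand concentration and Kd from saturation binding.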

The nature of data set [3]: Test 4: metabolic stability test in human hepatic microsome. The conditions noted are these: 0.1 mg/mL microsome, 0.1 μmol/L compound, 37° C., 30 minutes. In kind it is in vitro ADME. The essentials: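 LC-MS quantified remaining parent after 30 min, 37° C, in pH 7.4 25 mmol/L phosphate containing 0.1 mg/mL human hepatic microsomes, 3.2 mmol/L NADPH and 0.1 μmol/L test compound. Value given as −LN(residual ratio)/30/0.1, mL/min/mg protein.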

Data set [4] can be described thus: Test 5: predictive test of human half-life (monkey distribution volume, serum unbound fraction, microsomal stability). Type of data set: in vivo. The settings on record: predicted from cynomolgus monkey distribution volume (i.v.), serum unbound fraction and human hepatic microsome stability. As to the method: Test 5: Predictive Test of Human Half-Life
The present compound was intravenously administered to cynomolgus monkey as an aqueous solution in 0.01 mol/L hydrochloric acid. Blood was collected on 5 minutes, 15 minutes, 30 minutes, 1 hour, 2 hours, 4 hours, 6 hours, and 24 hours after the administration. Plasma was obtained from the collected blood, the drug concentration in the plasma was measured by LC-MS, and the distribution volume of monkey was calculated from the transition of the concentration.
The unbound fraction rate of the present compound in human or monkey serum was measured by equilibrium dialysis method.
The half-life in human was calculated according to the following formula using the results of the distribution volume of monkey, the unbound fraction rate in human or monkey serum, and the metabolic stability in human hepatic microsome obtained in Test 3.

Data set [5] concerns the target T1, human 5-HT1A receptor. Briefly: Test 2: agonist activity for human 5-HT1A receptor ([35S]GTPγS binding). In kind it is biochemical. The settings on record: for EC50: [35S]GTPγS binding, concentration at which half the activity of Emax was obtained; for Emax at 10 µM: agonist activity in the presence of 10 μM of compound, relative to 100 μmol/L 5-HT. In short, it runs like this:
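[35S]GTPγS binding read-out: after 60 min at room temperature with test compound in GDP buffer, human 5-HT1A receptor CHO membranes were vacuum-filtered and retained radioactivity scintillation-counted. Agonist activity calculated by formula.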
(In general: Binding of GTPγS marks nucleotide exchange on a G protein.)

For data set [6], the target named is T2, hERG channel. Nature of the data set: Test 6-2: inhibitory activity for hERG channel (auto patch clamp, Qube). In kind it is cell-based. The conditions noted are these: Test 6-2, hERG-CHO cells, whole cell patch clamp; read-out: hERG inhibition IC50. As for the experimental part:
Extracellular fluid: 2 mmol/L CaCl2, 1 mmol/L MgCl2, 10 mmol/L HEPES, 4 mmol/L KCl, 145 mmol/L NaCl, 10 mmol/L Glucose
(Measurement of Current Value and Data Analysis)
The cell suspension, the extracellular fluid, the intracellular fluid, and the measurement plate were set in the auto patch clamp system, and hERG current was measured by whole cell patch clamp method. […] Each pulse interval was 15 seconds. […] The test was carried out by applying incrementally 4 concentrations of each test compound, and the average of the maximum peak tail currents which were obtained from the last 3 stimulations in each concentration was determined as the evaluated data. Based on the current inhibition rate for a pre-applied current at each concentration of each test compound, IC50 value was calculated by Hill equation with the software.

Data set [7] in a line: Test 10: intracerebral transferability of rats (Kp,uu,brain). In kind it is in vivo, rat. The conditions noted are these: unbound drug concentration ratio brain/plasma. As for the experimental part:
Test 10: Evaluation of Intracerebral Transferability (Test for Intracerebral Transferability of Rats)
In this test, intracerebral transferability of the present compounds was evaluated by the following method. The present compounds were subcutaneously administered as a solution in saline, or orally administered as a suspension in methyl cellulose to 7-week-old SD or WKY rats. Plasma and brain were collected on 0.5 hours, 1 hour, or 2 hours after the administration to measure the drug concentrations in plasma and brain by LC-MS.
Binding rates of the present compound to plasma and brain protein were measured by equilibrium dialysis method.
Kp,uu,brain (unbound drug concentration ratio between brain/plasma) can be calculated by applying the compound concentrations in plasma and brain and the binding rates to plasma and brain protein obtained from the above test into the following formula. Kp,uu,brain=(Compound concentration in brain×(100−Binding rate to brain protein (%))/100)/(Compound concentration in plasma×(100−Binding rate to plasma protein (%))/100)

The target in data set [8] is T3, human 5-HT2A receptor (Homo sapiens (Human), UniProt P28223). Briefly: Test 1: binding activity for human 5-HT2A receptor ([3H]Ketanserin, CHO cell membrane fraction). The essentials:
as §1

For data set [9], the target named is T3, human 5-HT2A receptor. Nature of the data set: Test 3: antagonist activity for human 5-HT2A receptor (aequorin luminescence, CHO-K1 cells). In kind it is cell-based. The settings on record: CHO-K1 cells, 1 nmol/L 5-HT. The essentials: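 CHO-K1 cells transiently co-expressing aequorin, Gα16 and receptor; compound in DMSO added and luminescence recorded on FDSS/μCELL.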

Molecules are shown by their SMILES. Some results are limits rather than exact numbers.

T2 sequence (Q12809 whole entry): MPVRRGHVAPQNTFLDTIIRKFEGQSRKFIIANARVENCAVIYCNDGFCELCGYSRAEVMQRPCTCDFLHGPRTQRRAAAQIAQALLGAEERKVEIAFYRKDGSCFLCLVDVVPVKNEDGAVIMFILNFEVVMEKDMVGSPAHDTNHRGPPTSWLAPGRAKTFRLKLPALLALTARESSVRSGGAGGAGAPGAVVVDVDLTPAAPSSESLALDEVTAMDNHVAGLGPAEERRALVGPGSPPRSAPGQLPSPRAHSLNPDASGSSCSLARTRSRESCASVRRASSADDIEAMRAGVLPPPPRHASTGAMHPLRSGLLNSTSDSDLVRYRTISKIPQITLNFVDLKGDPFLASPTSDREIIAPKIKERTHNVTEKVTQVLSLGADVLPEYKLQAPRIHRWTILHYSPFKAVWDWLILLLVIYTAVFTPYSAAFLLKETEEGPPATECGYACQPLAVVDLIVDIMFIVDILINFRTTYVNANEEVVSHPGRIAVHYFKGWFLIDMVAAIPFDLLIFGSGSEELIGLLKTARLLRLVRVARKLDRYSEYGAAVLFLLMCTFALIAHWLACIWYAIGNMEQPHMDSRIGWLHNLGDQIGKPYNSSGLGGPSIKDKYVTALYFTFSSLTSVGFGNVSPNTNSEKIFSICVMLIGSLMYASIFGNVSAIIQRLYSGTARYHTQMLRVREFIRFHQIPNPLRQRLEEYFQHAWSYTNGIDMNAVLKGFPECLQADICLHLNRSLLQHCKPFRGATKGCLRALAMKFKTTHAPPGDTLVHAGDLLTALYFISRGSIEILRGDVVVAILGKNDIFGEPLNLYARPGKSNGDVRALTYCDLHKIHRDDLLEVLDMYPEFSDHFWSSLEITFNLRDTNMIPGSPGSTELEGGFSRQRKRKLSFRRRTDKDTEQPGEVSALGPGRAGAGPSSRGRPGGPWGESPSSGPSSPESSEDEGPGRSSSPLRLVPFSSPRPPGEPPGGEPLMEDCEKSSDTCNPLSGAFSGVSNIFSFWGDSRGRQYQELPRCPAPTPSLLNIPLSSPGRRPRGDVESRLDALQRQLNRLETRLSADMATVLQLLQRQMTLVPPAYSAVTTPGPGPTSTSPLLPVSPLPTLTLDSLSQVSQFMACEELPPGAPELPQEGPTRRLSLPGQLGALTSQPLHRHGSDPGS
T1 sequence (P08908 whole entry): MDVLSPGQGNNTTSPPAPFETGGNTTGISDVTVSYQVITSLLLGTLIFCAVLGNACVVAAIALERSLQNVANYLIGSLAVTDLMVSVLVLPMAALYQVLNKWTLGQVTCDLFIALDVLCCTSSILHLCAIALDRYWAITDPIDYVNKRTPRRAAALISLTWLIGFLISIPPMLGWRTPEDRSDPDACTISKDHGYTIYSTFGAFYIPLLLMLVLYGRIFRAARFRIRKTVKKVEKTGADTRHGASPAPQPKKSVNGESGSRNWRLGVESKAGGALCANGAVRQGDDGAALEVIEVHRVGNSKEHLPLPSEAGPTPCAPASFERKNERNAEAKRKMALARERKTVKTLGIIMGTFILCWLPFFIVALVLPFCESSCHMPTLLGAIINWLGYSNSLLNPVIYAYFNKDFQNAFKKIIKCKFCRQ
human D2 receptor, sequence (P14416 whole entry): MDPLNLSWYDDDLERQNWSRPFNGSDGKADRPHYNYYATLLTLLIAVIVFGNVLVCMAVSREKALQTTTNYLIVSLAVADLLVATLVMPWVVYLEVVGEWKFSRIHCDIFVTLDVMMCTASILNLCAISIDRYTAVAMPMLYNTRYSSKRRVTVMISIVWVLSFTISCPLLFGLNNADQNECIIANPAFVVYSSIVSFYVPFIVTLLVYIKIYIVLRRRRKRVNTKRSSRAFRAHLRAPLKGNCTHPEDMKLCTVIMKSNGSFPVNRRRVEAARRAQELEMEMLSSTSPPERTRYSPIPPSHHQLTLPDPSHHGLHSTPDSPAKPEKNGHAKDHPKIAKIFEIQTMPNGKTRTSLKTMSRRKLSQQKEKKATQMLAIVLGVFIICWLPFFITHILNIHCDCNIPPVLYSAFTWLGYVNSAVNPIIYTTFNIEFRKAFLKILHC
T3 sequence (P28223 whole entry): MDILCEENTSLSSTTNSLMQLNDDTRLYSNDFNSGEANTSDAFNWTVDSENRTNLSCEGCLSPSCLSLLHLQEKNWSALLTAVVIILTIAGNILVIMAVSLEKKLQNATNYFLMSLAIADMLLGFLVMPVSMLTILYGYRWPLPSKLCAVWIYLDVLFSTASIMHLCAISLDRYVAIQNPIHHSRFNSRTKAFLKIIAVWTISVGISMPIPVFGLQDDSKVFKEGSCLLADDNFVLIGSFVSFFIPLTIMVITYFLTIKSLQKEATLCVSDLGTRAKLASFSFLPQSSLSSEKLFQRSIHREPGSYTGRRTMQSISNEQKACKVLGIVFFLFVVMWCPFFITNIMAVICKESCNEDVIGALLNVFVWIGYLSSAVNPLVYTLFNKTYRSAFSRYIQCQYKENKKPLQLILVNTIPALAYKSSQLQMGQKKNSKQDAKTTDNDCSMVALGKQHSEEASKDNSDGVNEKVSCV

With `Cc1c2c(nn1C)CCN(CCN1CCC(c3noc4ccccc34)CC1)C2=O` [Example 37, 5-{2-[4-(1,2-Benzoisoxazol-3-yl)piperidin-1-yl]ethyl}-2,3-dimethyl-2,5,6,7-tetrahydro-4H-pyrazolo[4,3-c]pyridin-4-one], the Ki at human 5-HT1A receptor [1] came to 2.68 nM; on human D2 receptor it was 267 nM. Further, the IC50 on hERG channel [2] amounted to 1000 nM. Further, the “Metabolic stability in human hepatic microsome” value (“Metabolic stability” for short) in [3] is 0.017 mL/min/mg protein. For the same compound, the half-life in [4] was 8 h. The same compound displayed an EC50 at human 5-HT1A receptor [5] of 35 nM. Moreover, the Emax at 10 µM at human 5-HT1A receptor [5] came to 71%.

For `Cc1ncc2c(n1)CCN(CCN1CCC(c3noc4ccccc34)CC1)C2=O` [Example 88, 6-{2-[4-(1,2-Benzoisoxazol-3-yl)piperidin-1-yl]ethyl}-2-methyl-7,8-dihydropyrido[4,3-d]pyrimidin-5(6H)-one], the affinity on human 5-HT1A receptor [1], expressed as Ki, was 6.3 nM. Besides, on hERG channel [2], the 50% inhibitory concentration (IC50) was 5600 nM. At human D2 receptor, the Ki worked out at 916 nM. Moreover, the “Metabolic stability” value in data set [3] is less than 0.01 mL/min/mg protein. In addition, the half-life in [4] is greater than 23 h. Further, at human 5-HT1A receptor [5], a half-maximal effect (EC50) was put at 37 nM and the Emax at 10 µM worked out at 49%.

In the case of `Cc1nn(C)c2c1C(=O)N(CCN1CCN(c3noc4ccccc34)CC1)CCC2` [Example 92], at hERG channel [6], the IC50 is greater than 10000 nM. In addition, the Ki came out at 5.19 nM at human 5-HT1A receptor [1] and 738 nM on human D2 receptor. Besides, the “Metabolic stability” value in data set [3] is 0.065 mL/min/mg protein. This compound gave an EC50 on human 5-HT1A receptor [5] of 76.2 nM. Moreover, the Emax at 10 µM on human 5-HT1A receptor [5] came out at 43%.

With `Cn1ccc2c1CCCN(CCN1CCC(c3noc4ccccc34)CC1)C2=O` [Example 103, 5-{2-[4-(1,2-Benzoisoxazol-3-yl)piperidin-1-yl]ethyl}-1-methyl-5,6,7,8-tetrahydropyrrolo[3,2-c]azepin-4(1H)-one], affinity at human 5-HT1A receptor [1] was put at a Ki of 0.47 nM. For the same compound, at hERG channel [2], the concentration for half-maximal inhibition (IC50) amounted to 1400 nM. Also, the Ki at human D2 receptor was 129 nM. The “Metabolic stability” value in [3] is on record as less than 0.01 mL/min/mg protein. In addition, the half-life in data set [4] was greater than 45 h. Further, on human 5-HT1A receptor [5], the EC50 was 5.8 nM and the Emax at 10 µM is 62%.

Regarding `Cc1cc2c(cn1)C(=O)N(CCN1CCN(c3noc4ccccc34)CC1)CC2` [Example 3, 2-{2-[4-(1,2-Benzoisoxazol-3-yl)piperazin-1-yl]ethyl}-6-methyl-3,4-dihydro-2,7-naphthyridin-1(2H)-one], the Ki amounted to 2.7 nM on human 5-HT1A receptor [1] and 1260 nM on human D2 receptor. In addition, the concentration for half-maximal inhibition (IC50) at hERG channel [2] was determined as 7900 nM. Also, the “Metabolic stability” value in data set [3] is recorded as less than 0.01 mL/min/mg protein. In addition, the half-life in [4] is greater than 30 h. The response at human 5-HT1A receptor [5] was half-maximal at 10.1 nM (EC50). For the same compound, the Emax at 10 µM at human 5-HT1A receptor [5] turned out to be 69%.

`Cc1nn(C)c2c1C(=O)N(CCN1CCC(c3noc4ccccc34)CC1)CCC2` [Example 91]: the IC50 on hERG channel [6] was 1800 nM. This compound also had a Ki at human 5-HT1A receptor [1] of 0.57 nM. The Ki at human D2 receptor was found to be 103 nM. Besides, in [3], the “Metabolic stability” value is given as less than 0.05 mL/min/mg protein. Also, at human 5-HT1A receptor [5], the half-maximal effective concentration (EC50) came to 8.74 nM and the Emax at 10 µM is 46%.

As to `COc1cc2c(cn1)C(=O)N(CCN1CCN(c3nsc4ccccc34)CC1)CC2` [Example 2, 2-{2-[4-(1,2-Benzoisothiazol-3-yl)piperazin-1-yl]ethyl}-6-methoxy-3,4-dihydro-2,7-naphthyridin-1(2H)-one], the values for the inhibitory constant (Ki) at human 5-HT1A receptor [1] and on human D2 receptor were 0.03 nM and 128 nM, respectively. The IC50 at hERG channel [2] came out at 2500 nM. The “Kp, uu, brain” value in [7] turned out to be 1.27. For the same compound, in [3], the “Metabolic stability” value stood at 0.22 mL/min/mg protein. On human 5-HT1A receptor [5], the EC50 is 0.18 nM. In addition, the maximal effect (Emax) at 10 µM on human 5-HT1A receptor [5] worked out at 69%.

The compound `Cn1ncc2c1CCCN(CCN1CCN(c3noc4ccccc34)CC1)C2=O` [Example 80] registered a Ki at human 5-HT2A receptor [8] of 2.8 nM. Also, the IC50 at human 5-HT2A receptor [9] came to 55 nM; at hERG channel [2], 15400 nM. Besides, the “Metabolic stability” value in [3] was 0.012 mL/min/mg protein. The half-life in data set [4] is 10 h. Besides, the Emax at 10 µM at human 5-HT1A receptor [5] was 63%.

As usually defined, the Ki is the dissociation constant of the complex between target and ligand, obtained from inhibition or displacement. As usually defined, the IC50 is the concentration needed to halve the response being measured. For orientation: half-life means the time in which the quantity being followed falls by half. The term EC50 denotes the concentration giving half of the maximal effect. As a reminder, the Emax is the greatest response seen or fitted, relative to the assay's reference.

Source of the values: patent US10745401B2, “Condensed lactam derivative” (Sumitomo Dainippon Pharma Co., Ltd., priority 2018, dated 2020).
